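Here, GI50 denotes the concentration required for 50% inhibition of growth. At the TGI there is no net growth.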
How the values were obtained:
Test in all cases: NCI anticancer screen, dose series, 384-well format
SK-MEL-2 melanoma = test system: SK-MEL-2 melanoma
HT29 colon = test system: HT29 colon
SF-268 CNS = test system: SF-268 CNS
SK-MEL-28 melanoma = test system: SK-MEL-28 melanoma
UACC-257 melanoma = test system: UACC-257 melanoma
MDA-MB-435 melanoma = test system: MDA-MB-435 melanoma
CAKI-1 renal = test system: CAKI-1 renal
HOP-62 NSCLC = test system: HOP-62 NSCLC
ACHN renal = test system: ACHN renal
RXF 393 renal = test system: RXF 393 renal
SF-539 CNS = test system: SF-539 CNS
PC-3 prostate = test system: PC-3 prostate
KM12 colon = test system: KM12 colon
MCF7 breast = test system: MCF7 breast
HCT-116 colon = test system: HCT-116 colon
T-47D breast = test system: T-47D breast
BT-549 breast = test system: BT-549 breast
MOLT-4 leukemia = test system: MOLT-4 leukemia
HS 578T breast = test system: HS 578T breast
COLO 205 colon = test system: COLO 205 colon
A549 NSCLC = test system: A549 NSCLC
SW-620 colon = test system: SW-620 colon
UACC-62 melanoma = test system: UACC-62 melanoma
HOP-92 NSCLC = test system: HOP-92 NSCLC
NCI-H226 lung = test system: NCI-H226 lung
TK-10 renal = test system: TK-10 renal
EKVX NSCLC = test system: EKVX NSCLC
HL-60(TB) leukemia = test system: HL-60(TB) leukemia
A498 renal = test system: A498 renal
DU-145 prostate = test system: DU-145 prostate
MALME-3M melanoma = test system: MALME-3M melanoma
MDA-MB-468 breast = test system: MDA-MB-468 breast
SNB-19 CNS = test system: SNB-19 CNS
SK-MEL-5 melanoma = test system: SK-MEL-5 melanoma
OVCAR-4 ovarian = test system: OVCAR-4 ovarian
NCI-H322M lung = test system: NCI-H322M lung
786-0 renal = test system: 786-0 renal
K-562 leukemia = test system: K-562 leukemia
SF-295 CNS = test system: SF-295 CNS
MDA-MB-231 breast = test system: MDA-MB-231 breast
NCI-H460 NSCLC = test system: NCI-H460 NSCLC
OVCAR-3 ovarian = test system: OVCAR-3 ovarian
NCI-H23 lung = test system: NCI-H23 lung
SNB-75 CNS = test system: SNB-75 CNS
OVCAR-8 ovarian = test system: OVCAR-8 ovarian
M14 melanoma = test system: M14 melanoma
HCT-15 colon = test system: HCT-15 colon
SN12C renal = test system: SN12C renal
OVCAR-5 ovarian = test system: OVCAR-5 ovarian
SR leukemia = test system: SR leukemia
UO-31 renal = test system: UO-31 renal
IGROV1 ovarian = test system: IGROV1 ovarian
U251 glioblastoma = test system: U251 glioblastoma
NCI-H522 lung = test system: NCI-H522 lung

COc1cc(C(=O)O)ccc1NC(=O)[C@@H]1N[C@@H](CC(C)(C)C)[C@](C#N)(c2ccc(Cl)cc2F)[C@H]1c1cccc(Cl)c1F
GI50 (SK-MEL-2 melanoma): 2.69 µM
TGI (SK-MEL-2 melanoma): 6.28 µM
GI50 (HT29 colon): 4.23 µM
TGI (HT29 colon): 13.1 µM
GI50 (SF-268 CNS): 3.87 µM
TGI (SF-268 CNS): 12.5 µM
GI50 (SK-MEL-28 melanoma): 2.73 µM
TGI (SK-MEL-28 melanoma): 6.12 µM
GI50 (UACC-257 melanoma): 0.228 µM
TGI (UACC-257 melanoma): 0.657 µM
GI50 (MDA-MB-435 melanoma): 3.71 µM
TGI (MDA-MB-435 melanoma): 12.2 µM
GI50 (CAKI-1 renal): 0.0193 µM
TGI (CAKI-1 renal): 13.7 µM
GI50 (HOP-62 NSCLC): 8.06 µM
GI50 (ACHN renal): 0.03 µM
TGI (ACHN renal): 1.49 µM
GI50 (RXF 393 renal): 2.59 µM
TGI (RXF 393 renal): 5.85 µM
GI50 (SF-539 CNS): 3.09 µM
TGI (SF-539 CNS): 11.6 µM
GI50 (PC-3 prostate): 4.32 µM
TGI (PC-3 prostate): 14.2 µM
GI50 (KM12 colon): 0.0634 µM
TGI (KM12 colon): 1.38 µM
GI50 (MCF7 breast): 0.0339 µM
TGI (MCF7 breast): 1.04 µM
GI50 (HCT-116 colon): 0.0526 µM
TGI (HCT-116 colon): 1.85 µM
GI50 (T-47D breast): 3.16 µM
GI50 (BT-549 breast): 3.03 µM
TGI (BT-549 breast): 6.21 µM
GI50 (MOLT-4 leukemia): < 0.01 µM
TGI (MOLT-4 leukemia): 0.0195 µM
GI50 (HS 578T breast): 3.75 µM
TGI (HS 578T breast): 11.9 µM
GI50 (COLO 205 colon): 5.06 µM
TGI (COLO 205 colon): 18.1 µM
GI50 (A549 NSCLC): 0.195 µM
TGI (A549 NSCLC): 4.76 µM
GI50 (SW-620 colon): 4.53 µM
TGI (SW-620 colon): 14.2 µM
GI50 (UACC-62 melanoma): < 0.01 µM
TGI (UACC-62 melanoma): 1.44 µM
GI50 (HOP-92 NSCLC): 1.94 µM
TGI (HOP-92 NSCLC): 4.35 µM
GI50 (NCI-H226 lung): 0.0202 µM
TGI (NCI-H226 lung): 0.128 µM
GI50 (TK-10 renal): 5.05 µM
TGI (TK-10 renal): 16.6 µM
GI50 (EKVX NSCLC): 5.88 µM
GI50 (HL-60(TB) leukemia): 2.07 µM
TGI (HL-60(TB) leukemia): 3.51 µM
GI50 (A498 renal): 0.0406 µM
TGI (A498 renal): 4.26 µM
GI50 (DU-145 prostate): 5.75 µM
TGI (DU-145 prostate): 17.5 µM
GI50 (MALME-3M melanoma): 0.0869 µM
TGI (MALME-3M melanoma): 11.9 µM
GI50 (MDA-MB-468 breast): 3.79 µM
GI50 (SNB-19 CNS): 4.3 µM
TGI (SNB-19 CNS): 14.1 µM
GI50 (SK-MEL-5 melanoma): 1.15 µM
TGI (SK-MEL-5 melanoma): 2.44 µM
GI50 (OVCAR-4 ovarian): 5.83 µM
TGI (OVCAR-4 ovarian): 18.3 µM
GI50 (NCI-H322M lung): 10.3 µM
TGI (NCI-H322M lung): 22 µM
GI50 ([…]-0 renal): 3.54 µM
TGI (786-0 renal): 13.7 µM
GI50 (K-562 leukemia): 4.19 µM
TGI (K-562 leukemia): 13.9 µM
GI50 (SF-295 CNS): 3.77 µM
GI50 (MDA-MB-231 breast): 3.48 µM
TGI (MDA-MB-231 breast): 12 µM
GI50 (NCI-H460 NSCLC): 4.31 µM
TGI (NCI-H460 NSCLC): 14.5 µM
GI50 (OVCAR-3 ovarian): 2.35 µM
TGI (OVCAR-3 ovarian): 5.27 µM
GI50 (NCI-H23 lung): 4.77 µM
GI50 (SNB-75 CNS): 6.6 µM
TGI (SNB-75 CNS): 18.7 µM
GI50 (OVCAR-8 ovarian): 4.65 µM
GI50 (M14 melanoma): 1.98 µM
TGI (M14 melanoma): 11.2 µM
GI50 (HCT-15 colon): 3.51 µM
GI50 (SN12C renal): 4.7 µM
TGI (SN12C renal): 15.9 µM
GI50 (OVCAR-5 ovarian): 8.12 µM
TGI (OVCAR-5 ovarian): 20.2 µM
GI50 (SR leukemia): < 0.01 µM
TGI (SR leukemia): 0.0122 µM
GI50 (UO-31 renal): 0.0758 µM
TGI (UO-31 renal): 0.464 µM
GI50 (IGROV1 ovarian): 2.63 µM
TGI (IGROV1 ovarian): 13.8 µM
GI50 (U251 glioblastoma): 3.68 µM
GI50 (NCI-H522 lung): 3.74 µM
TGI (NCI-H522 lung): 10.9 µM

Source: PubChem BioAssay (NCI)
